For one assay, the target named is T1, human TyrRS (Homo sapiens, UniProt P54577).
T1 sequence (P54577 1-341): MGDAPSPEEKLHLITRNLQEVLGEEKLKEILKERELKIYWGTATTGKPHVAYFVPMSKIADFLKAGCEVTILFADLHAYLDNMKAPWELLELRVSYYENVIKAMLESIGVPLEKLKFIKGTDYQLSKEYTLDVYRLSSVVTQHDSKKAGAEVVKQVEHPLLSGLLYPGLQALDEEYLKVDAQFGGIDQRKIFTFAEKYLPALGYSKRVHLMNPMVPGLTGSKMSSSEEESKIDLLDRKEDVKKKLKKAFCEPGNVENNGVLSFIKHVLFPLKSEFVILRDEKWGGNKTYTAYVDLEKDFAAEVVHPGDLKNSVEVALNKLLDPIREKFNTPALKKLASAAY
The assay is described as follows: ATP–pyrophosphate exchange assay. The assay is classed as biochemical. The conditions noted are these: for inhibitory effect on human TyrRS (SAR statement in words): 100 μM screening data of Tables 1 and 2; for remaining activity at 100 µM: read-out: Enzyme activity@100 μM (%).

The subject of assay [1] is HeLa cells. Kind of assay: Cellular localization of TyrRS. The settings on record: HeLa cells, 1.1, 3.3, 10 or 30 μM, 8 h, immunoblot. The assay is classed as cell-based, human. On the technique in general: In western blotting, separated proteins are transferred to a membrane and probed.
Assay [2] relates to HeLa cells. Kind of assay: Detection of DNA damage in cells. The conditions noted are these: pre-treated 24 h (0.37-30 μM), then 30 μM cisplatin 24 h, immunoblot. In kind it is cell-based, human.

The values below come from paper PMC9062088 (RSC Advances, 2019).

As for `COc1ccccc1Sc1c(O)c(Sc2ccccc2OC)c2oc(-c3ccccc3)cc(=O)c2c1O` [Compound 3], on human TyrRS, the “inhibitory effect on human TyrRS (SAR statement in words)” value is recorded as “substantially diminished activity” and the remaining activity at 100 µM came to 88.9%. The like results for `Cc1ccccc1Sc1c(O)c(Sc2ccccc2C)c2oc(-c3ccccc3)cc(=O)c2c1O` [Compound 8] were, in that order, “substantially diminished activity” and 75.9%.

In the case of `CC(C)(C)c1ccc(Sc2c(O)c(Sc3ccc(C(C)(C)C)cc3)c3oc(-c4ccccc4)cc(=O)c3c2O)cc1` [Compound 9], on human TyrRS, the “inhibitory effect on human TyrRS (SAR statement in words)” value is reported as “substantially diminished activity” and the remaining activity at 100 µM was 85.3%. As to `O=c1cc(-c2ccccc2)oc2c(Sc3cccc(O)c3)c(O)c(Sc3cccc(O)c3)c(O)c12` [Compound 11, 5,7-dihydroxy-6,8-bis((3-hydroxyphenyl)thio)-2-phenyl-4H-chromen-4-one], the TyrRS nuclear localization entry in the assay on HeLa cells [1] is “dramatically promoted the nuclear localization of TyrRS”. The “level of γ-H2A.X (DNA damage)” value in the assay on HeLa cells [2] is recorded as “dramatically decreased”. With `COc1cc(O)c(Sc2cccc(F)c2)c2oc(-c3ccccc3)cc(=O)c12` [Compound 15], the remaining activity at 100 µM at human TyrRS stood at 68.5%. On the same count and under the same terms, as for `COc1cc(O)c(Sc2ccc(F)cc2)c2oc(-c3ccccc3)cc(=O)c12` [Compound 16], the figure is 76.4%. Still for that read-out and setting: as for `COc1cc(O)c(Sc2ccccc2F)c2oc(-c3ccccc3)cc(=O)c12` [Compound 18], the figure is 73.8%; as for `COc1ccc(Sc2c(O)cc(OC)c3c(=O)cc(-c4ccccc4)oc23)cc1` [Compound 21], 73.9%. On the same count and under the same terms, with `O=c1cc(-c2ccccc2)oc2c(Sc3cccc(O)c3)c(O)cc(O)c12` [Compound 26] the figure was 93.2%; with `O=c1cc(-c2ccccc2)oc2c(Sc3ccccc3O)c(O)cc(O)c12` [Compound 29], 81.9%.
